What all share (assay): DTP human tumour cell line panel, 48 h
Test [1] deals with OVCAR-4 ovarian.
The test system of test [2] is RXF 393 renal.
Test [3] relates to SK-MEL-5 melanoma.
Test [4] deals with SR leukemia.
For test [5], the system named is EKVX NSCLC.
Test [6] concerns SN12C renal.
The subject of test [7] is PC-3 prostate.
The test system of test [8] is SF-539 CNS.
Test [9] has as its system SW-620 colon.
The subject of test [10] is KM12 colon.

The structures appear in SMILES notation. “And” between values parts separate entries of the source, which are not always exact repeats. Identical values can stand only once.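 Five compound concentrations were applied to cells in 96-well plates for 48 hours; endpoints were derived by simple linear interpolation of the resulting dose-response curve. The concentration for 50% growth inhibition is given as GI50. Definition used: TGI = concentration required for complete inhibition of growth.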

Usually GI50 stands for the concentration giving 50% growth inhibition. By TGI is commonly meant the concentration giving total growth inhibition. A high value points to less potent growth arrest. Consider `COc1ccc2c(Nc3ccc(NS(C)(=O)=O)cc3)c3ccccc3nc2c1`, for which the GI50 in [1] is 1.23 µM; in test [2] it was 0.871 µM; in test [3] it was 0.526 µM; in test [4], 0.112 µM; in test [5] it was 1.43 µM; in test [6], 0.487 µM. In addition, the GI50 was 0.735 µM in test [7], 0.525 µM in test [8], 0.276 µM in test [9] and 0.533 µM in test [10]. Besides, the TGI in test [1] was 4.13 µM; in test [2], 2.4 µM; in test [3] it was 1.89 µM; in [4], 6.46 µM; in test [5], 8.2 µM; in test [6], 13.2 µM. The TGI in test [7] was 10.1 µM; in test [8], 2.28 µM; in test [9] it was 3.29 µM; in test [10], 9.19 µM.

With `NC(=O)c1cc(Br)cc(C2CCCCC2)c1O`, the GI50 was 12.9 µM in [1]; 6.44 µM in test [2]; 15.1 µM in [3]; 14.2 µM in [4]; 15.1 µM in test [5]; 12.2 µM in test [6]. Further, the GI50 was 12.8 µM in test [7], 15.2 µM in test [8], 15.5 µM in test [9] and 11.7 µM in [10]. The TGI came out at 25.6 µM in test [1]; 22 µM in test [2]; 28.9 µM in [3]; 34.6 µM in [4]; 30.5 µM in test [5]; 25.1 µM in test [6]. Also, the TGI stood at 26.4 µM in test [7], 30.2 µM in [8], 29.8 µM in [9] and 24.5 µM in test [10].

On to `COc1ccccc1NC(=O)n1nc(N)c2ccccc21`, for which the GI50 is more than 68.1 µM in test [1]; 36.7 µM in [2]; more than 87.9 µM in [3]; 92.4 µM in test [4]; 55.9 µM in test [5]; more than 100 µM in test [6]. Further, the GI50 in test [7] is 64.1 µM; in test [8], 58.4 µM; in test [9] it was more than 100 µM; in test [10], 47.4 µM. The TGI in test [1], in test [2], in test [3], in test [4], in [5] and in [6] was more than 100 µM throughout. For the same compound, the TGI in test [7], in test [8], in test [9] and in [10] was more than 100 µM throughout.

Consider `COc1cc2c3c(c1)c1cc(OC)c(OC)cc1c[n+]3CC2`, for which the GI50 is 18.2 µM in test [1]; 11.8 µM in test [3]; more than 100 µM in test [5]; 5.66 µM in [6]; 29.9 µM in test [7]; 26.6 µM in [9]. Moreover, the GI50 in test [10] was 5.69 µM. The TGI in test [1] is 50 µM and > 100 µM; in test [2], 50 µM and > 100 µM; in test [3], 50 µM and 36.6 µM; in [4] it was 50 µM; in test [5], 50 µM and > 100 µM; in test [6] it was 15.6 µM and > 100 µM. For the same compound, the TGI in test [7] was 50 µM and > 100 µM; in test [8] it was 50 µM; in test [9], more than 100 µM; in test [10], 19.3 µM and 69.9 µM.

Consider `OCCSCc1ccccc1`, for which the TGI in [1], in [2], in test [3], in test [4], in test [5] and in test [6] was more than 100 µM throughout. The TGI in [7], in [8], in [9] and in test [10] was more than 100 µM in each case.

On to `O=C1C=C(Br)C(=O)C12CCc1ccccc12` (configuration not stated), for which the concentration for total growth inhibition (TGI) is 52.4 µM in [1]; 19.1 µM in test [2]; 34.6 µM in test [3]; 17.3 µM in test [4]; 62 µM in [5]; 35 µM in test [6]. The TGI stood at 32.5 µM in [7], 35.6 µM in test [8], 16.2 µM in test [9] and 44.6 µM in test [10].

`O=c1nc(Nc2cccc(Cl)c2)oc2cc(Cl)oc(=O)c12`: the GI50 in test [1] is 10.9 µM; in test [2], 3.22 µM; in test [3], 18.2 µM; in test [4] it was 2.88 µM; in test [5], 16.9 µM; in test [6], 10.4 µM. The GI50 is 10.8 µM in test [7], 4 µM in test [8], 10.9 µM in test [9] and 11.4 µM in [10]. In addition, the TGI in test [1] is more than 100 µM; in test [2], 8.52 µM; in [3], 54.5 µM; in [4], 12.4 µM; in test [5] it was 39.8 µM; in test [6], more than 100 µM. In addition, the TGI was found to be 66.5 µM in test [7], 21 µM in test [8], 29.9 µM in test [9] and 31.8 µM in [10].

In the case of `C#CC1(O)C(COP(=O)(O)OC2CC(n3cc(F)c(=O)[nH]c3=O)OC2CO)OC(n2ccc(N)nc2=O)C1O` (configuration not stated), the GI50 in [1] was 0.143 µM; in test [2] it was less than 0.0342 µM; in test [3], less than 0.0154 µM; in test [4], less than 0.01 µM; in test [5], 0.738 µM; in test [6], less than 0.0106 µM. For the same compound, the GI50 in [7] was less than 0.032 µM; in [8], less than 0.0105 µM; in test [9], less than 0.01 µM; in test [10] it was less than 0.01 µM. Moreover, the TGI in test [1] is 8.49 µM; in test [2], 2.37 µM; in [3], 0.196 µM; in test [4] it was 0.142 µM; in test [5], 16 µM; in [6], more than 100 µM. The TGI in test [7] is 29.7 µM; in test [8], 0.22 µM; in test [9] it was more than 100 µM; in [10], more than 29 µM.

These data come from PubChem BioAssay (NCI).
